Source: patent US20100075343A1, “NOVEL PEPTIDES” (priority 2007, published 2010)
Entries after “also recorded” stand apart in the source; their conditions may differ.

What was measured:
[1] = tested on: medulla oblongata of apoaequorin-expressing mice; experiment: Intracellular calcium ion increase (aequorin luminescence), medulla oblongata; assay type: cell-based, mouse; details: peptide at final concentrations of 1 μmol/L and 5 μmol/L
Method: (§1) A hypothalamus, pituitary gland, kidney, heart, blood vessel, or a portion of brain tissue is collected from transgenic mice systemically expressing apoaequorin (WO02/010371) produced by introducing an apoaequorin gene expression vector into fertilized eggs. The obtained hypothalamus, pituitary gland, kidney, heart, blood vessel, or brain tissue is cut finely into pieces, suspended in a medium containing coelenterazine, and then incubated to incorporate coelenterazine into the cells to form aequorin (a complex of apoaequorin and coelenterazine). Since aequorin luminesces upon binding to intracellular calcium ions, the relative luminescence level in cells before and after addition of a medium containing the peptide or a pharmaceutically acceptable salt thereof is measured in a luminometer every second over time and is used as an indicator of intracellular calcium ion concentration. Increase in the relative luminescence level due to addition of the peptide or pharmaceutically acceptable salt thereof confirms that the peptide or pharmaceutically acceptable salt thereof has the activity to increase intracellular calcium ion concentration.
(§2) Whether Peptides 1 to 8 synthesized in Example 2 have the activity of increasing intracellular calcium ion concentration was investigated using the organs of transgenic mice introduced with the apoaequorin gene and systemically expressing apoaequorin (hereinafter referred to as apoaequorin-expressing mice). In apoaequorin-expressing mouse cells, light is emitted when apoaequorin binds to a calcium ion in the presence of the luminescent substrate coelenterazine and thus the intracellular calcium ion concentration can be monitored. Patent Document (WO02/010371) discloses the method for producing apoaequorin-expressing mice, method for evaluating biologically active substances that use biological samples derived from the mice, and experimental results of evaluating biologically active peptides using the mouse organs as shown below. […] Therefore, apoaequorin-expressing mice can be used in the evaluation of the physiological activities of novel peptides.
(§3) Apoaequorin-expressing mice were produced according to the method disclosed in Reference Example 4 of Patent Document (WO02/010371). The apoaequorin-expressing mice were sacrificed, individual organs including thymus, hypothalamus, spleen, bone, aorta, heart, kidney, adrenal gland, pancreas, pituitary gland, uterus, medulla oblongata, and spinal cord were removed; and each of the organs was cut into small cubes of approximately 1 to 2 mm^3. Next, in 5-mL tubes (Rohren-Tubes; manufactured by Sarstedt, No. 55.476), three portions of each of the prepared organs were added to 50 μL of a 10 μmol/L solution of coelenterazine (manufactured by Molecular Probes) dissolved in RPMI 1640 medium, and these were cultured at 37° C. for three hours. After culturing, RPMI 1640 medium was added, and then Peptides 1 to 5 dissolved in RPMI 1640 medium were added 25 seconds after the addition of RPMI 1640 until each peptide had final concentrations of 1 μmol/L and of 5 μmol/L, and the relative luminescence levels were measured every second immediately after the addition of RPMI 1640 medium by using a luminometer (AutoLumat LB953, manufactured by Berthold).

[2] = tested on: hypothalamic cells of the apoaequorin-expressing mice; experiment: Intracellular calcium ion increase (aequorin luminescence), hypothalamus; assay type: cell-based, mouse; details: for increase of intracellular calcium concentration in hypothalamic cells (RLU per second): 1 μmol/L peptide, added at 25 seconds; for luminescence (intracellular calcium ion increase) in hypothalamus: peptide at final concentrations of 1 μmol/L and 5 μmol/L
Method: as §1, §2, §3

[3] = tested on: thymus of apoaequorin-expressing mice; experiment: Intracellular calcium ion increase (aequorin luminescence), thymus; assay type: cell-based, mouse; details: peptide at final concentrations of 1 μmol/L and 5 μmol/L
Method: as §1, §2
(§4) Apoaequorin-expressing mice were produced according to the method disclosed in Reference Example 4 of Patent Document (WO02/010371). […] After culturing, RPMI 1640 medium was added, and then Peptides 1 to 5 dissolved in RPMI 1640 medium were added 25 seconds after the addition of RPMI 1640 until each peptide had final concentrations of 1 μmol/L and of 5 μmol/L, and the relative luminescence levels were measured every second immediately after the addition of RPMI 1640 medium by using a luminometer (AutoLumat LB953, manufactured by Berthold).

[4] = tested on: nerve endings in the posterior pituitary gland of AVP-eGFP Tg rats; experiment: Continuous measurement of AVP-eGFP fluorescence in rat posterior pituitary gland (vasopressin release); assay type: cell-based; details: peptide at final concentration of 10^−6 M in perfusate, last five minutes; control (basal) taken as 1
Source text: In transgenic (Tg) rats produced using a fusion gene, which is a vasopressin (arginine vasopressin: AVP) gene inserted with the enhanced green fluorescent protein (eGFP) gene, eGFP is expressed specifically in AVP neurons of the hypothalamus-pituitary system and their axons (Ueta et al., Endocrinology, 146, 406-413, 2005). Vasopressin secretion-promoting activity can be measured using pituitary gland excised from such AVP-eGFP Tg rats.
The pituitary gland is excised from an AVP-eGFP Tg rat and placed in a chamber of a perfusion apparatus filled with perfusate (140 mM NaCl, 5 mM KCl, 10 mM HEPES, 10 mM glucose, 1.2 mM KH2PO4, 1.2 mM MgCl2, 2 mM CaCl2; the pH and osmotic pressure are adjusted to 7.37 and 295 to 300 mOsml, respectively). Laser beam (488 nm) from an excitation light irradiation device (^161C; manufactured by Spectra Physics), is irradiated onto the posterior pituitary gland through an optical fiber (GIF625-100; manufactured by Thorlabs). The eGFP fluorescent light as a result of excitation at nerve endings in the posterior pituitary gland is collected by a phototube (R6249HA; Hamamatsu Photonics) through another optical fiber. After conversion into an electric signal, it can be amplified with an amplifier (C7246; manufactured by Hamamatsu Photonics) to observe the change in the eGFP fluorescence. The amount of change serves as an indicator for the amount of change of AVP-eGFP present in the pituitary gland, and the vasopressin secretion-promoting activity of the VGF-related peptide or a pharmaceutically acceptable salt thereof can be measured.
Specifically, the recording time is set to 10 minutes. As a control (basal), only the perfusate is administered in the first five minutes. Then, a mixture of the perfusate and the VGF-related peptide or a pharmaceutically acceptable salt thereof prepared to have a final concentration of 10^−6 M is administered in the last five minutes. The amount of vasopressin secreted from the pituitary gland can be measured by observing changes in the eGFP fluorescence. […]

[5] = tested on: pituitary cells of the apoaequorin-expressing mice; experiment: Intracellular calcium ion increase (aequorin luminescence), pituitary gland; assay type: cell-based, mouse; details: for increase of intracellular calcium concentration in pituitary cells (RLU per second): added at 25 seconds; for luminescence (intracellular calcium ion increase) in pituitary gland: peptide at final concentrations of 1 μmol/L and 5 μmol/L
Method: as §1, §2, §3

[6] = tested on: pancreatic cells of the apoaequorin-expressing mice; experiment: Intracellular calcium ion increase (aequorin luminescence), pancreas; assay type: cell-based, mouse; details: for luminescence (intracellular calcium ion increase) in pancreas: peptide at final concentrations of 1 μmol/L and 5 μmol/L
Method: as §1
Whether Peptides 1 to 8 synthesized in Example 2 have the activity of increasing intracellular calcium ion concentration was investigated using the organs of transgenic mice introduced with the apoaequorin gene and systemically expressing apoaequorin (hereinafter referred to as apoaequorin-expressing mice). In apoaequorin-expressing mouse cells, light is emitted when apoaequorin binds to a calcium ion in the presence of the luminescent substrate coelenterazine and thus the intracellular calcium ion concentration can be monitored. Patent Document (WO02/010371) discloses the method for producing apoaequorin-expressing mice, method for evaluating biologically active substances that use biological samples derived from the mice, and experimental results of evaluating biologically active peptides using the mouse organs as shown below. […]

[7] = tested on: cardiac cells of the apoaequorin-expressing mice; experiment: Intracellular calcium ion increase (aequorin luminescence), heart; assay type: cell-based, mouse
Method: as §1, §2, §3

[8] = tested on: aortic cells of the apoaequorin-expressing mice; experiment: Intracellular calcium ion increase (aequorin luminescence), aorta; assay type: cell-based, mouse
Method: as §1, §2, §4

[9] = tested on: spleen of apoaequorin-expressing mice; experiment: Intracellular calcium ion increase (aequorin luminescence), spleen; assay type: cell-based, mouse; details: peptide at final concentrations of 1 μmol/L and 5 μmol/L
Method: as §1, §2, §4

[10] = 1 μmol/L peptide, added at 25 seconds
[11] = peptide at final concentrations of 1 μmol/L and 5 μmol/L

Row | Substance | luminescence (intracellular calcium ion increase) in medulla oblongata [1] | increase of intracellular calcium concentration in hypothalamic cells (RLU per second) [2] | luminescence (intracellular calcium ion increase) in hypothalamus [2] | luminescence (intracellular calcium ion increase) in thymus [3] | vasopressin release from nerve endings in the posterior pituitary gland (change in eGFP fluorescence) [4] | increase of intracellular calcium concentration in pituitary cells (RLU per second) ([5]; 5 μmol/L peptide) | luminescence (intracellular calcium ion increase) in pituitary gland [5] | luminescence (intracellular calcium ion increase) in pancreas [6] | increase of intracellular calcium concentration in pituitary cells (RLU per second) ([5]; 1 μmol/L peptide) | increase of intracellular calcium concentration in cardiac cells (RLU per second) [7, 10] | luminescence (intracellular calcium ion increase) in heart [7, 11] | increase of intracellular calcium concentration in aortic cells (RLU per second) [8, 10] | luminescence (intracellular calcium ion increase) in aorta [8, 11] | luminescence (intracellular calcium ion increase) in spleen [9] | increase of intracellular calcium concentration in pancreatic cells (RLU per second) ([6]; 5 μmol/L peptide, added at 25 seconds)
1 | Peptide 1: amino acid sequence at position 177 to 206 in human VGF (QQETAAAETETRTHTLTRVNLESPGPERVW; synthetic Peptide 1, VGF-related peptide, human VGF positions 177-206) | luminescence was observed | increase of intracellular calcium concentration | luminescence was observed | luminescence was observed | reduced eGFP fluorescence; also recorded: vasopressin release | increase of intracellular calcium concentration | luminescence was observed |  |  |  |  |  |  |  | 
2 | Peptide 4: amino acid sequence at position 533 to 543 in human VGF (EEDEVYPPGPY; synthetic Peptide 4, VGF-related peptide, human VGF positions 533-543) |  | increase of intracellular calcium concentration | luminescence was observed |  |  |  | luminescence was observed | luminescence was observed | increase of intracellular calcium concentration |  |  |  |  |  | 
3 | Peptide 7: amino acid sequence at position 400 to 417 in human VGF (QNALLFAEEEDGEAGAED; synthetic Peptide 7, VGF-related peptide, human VGF positions 400-417) |  | increase of intracellular calcium concentration | luminescence was observed |  |  |  | luminescence was observed |  | increase of intracellular calcium concentration | increase of intracellular calcium concentration | luminescence was observed | increase of intracellular calcium concentration | luminescence was observed | luminescence was observed | 
4 | Peptide 10: amino acid sequence at position 485 to 503 in human VGF (NAPPEPVPPPRAAPAPTHV; synthetic Peptide 10, VGF-related peptide, human VGF positions 485-503) |  | increase of intracellular calcium concentration | luminescence was observed |  |  |  | luminescence was observed | luminescence was observed | increase of intracellular calcium concentration |  |  |  |  |  | increase of intracellular calcium concentration
5 | Peptide 11: amino acid sequence at position 533 to 552 in human VGF (EEDEVYPPGPYHPFPNYIRP; synthetic Peptide 11, VGF-related peptide, human VGF positions 533-552) |  | increase of intracellular calcium concentration | luminescence was observed |  | reduced eGFP fluorescence; also recorded: vasopressin release | increase of intracellular calcium concentration | luminescence was observed |  |  |  |  |  |  |  | 
6 | Peptide 12: amino acid sequence at position 556 to 585 in rat VGF (TLQPPASSRRRHFHHALPPARHHPDLEAQA; synthetic Peptide 12, VGF-related peptide, rat VGF positions 556-585) |  |  |  |  | reduced eGFP fluorescence; also recorded: vasopressin release | increase of intracellular calcium concentration | luminescence was observed |  |  |  |  |  |  |  | 
